This passage reports Activity, ED50 and Ki results from ChEMBL document CHEMBL1154779, “Synthesis and adrenolytic activity of 1-(1H-indol-4-yloxy)-3-(2-(2-methoxy phenoxy)ethylamino)propan-2-ol analogs and its enantiomers. Part 2” (Eur J Med Chem, 2009).

Assay [1] deals with Rattus norvegicus. As to the kind of experiment: Effect on heart rate in anesthetized Wistar rat assessed as P-Q intervals time at 1 mg/kg, iv after 1 min by electrocardiography. The assay is classed as functional.
Assay [2] has as its system Rattus norvegicus. As to the kind of experiment: Antiarrhythmic activity in Wistar rat assessed as inhibition of adrenaline-induced premature ventricular beats at 1 mg/kg, iv administered 15 mins before adrenaline challenge measured after 15 mins by electrocardiography. The assay is classed as functional. The note with it: Heart.
Assay [3] has as its system Rattus norvegicus. As to the kind of experiment: Effect on heart rate in anesthetized Wistar rat assessed as heart beats per min at 1 mg/kg, iv after 5 mins by electrocardiography. The assay is classed as functional.
Assay [4] has as its system Rattus norvegicus. The assay can be described thus: Effect on heart rate in anesthetized Wistar rat assessed as heart beats per min at 1 mg/kg, iv after 1 min by electrocardiography. The assay is classed as functional.
The test system of assay [5] is Rattus norvegicus. As to the kind of experiment: Effect on heart rate in anesthetized Wistar rat assessed as P-Q intervals time at 1 mg/kg, iv after 15 mins by electrocardiography. The assay is classed as functional.
Assay [6] concerns Rattus norvegicus. As to the kind of experiment: Effect on heart rate in anesthetized Wistar rat assessed as QRS complex time at 1 mg/kg, iv after 1 min by electrocardiography. The assay is classed as functional.
The subject of assay [7] is Rattus norvegicus. The assay can be described thus: Effect on heart rate in anesthetized Wistar rat assessed as P-Q intervals time at 1 mg/kg, iv after 5 mins by electrocardiography. The assay is classed as functional.
A short description of assay [8]: Displacement of [3H]CGP12177 from beta-1 adrenergic receptor in Wistar rat cerebral cortex membrane by liquid scintillation counting. The assay is classed as tissue-based.
Assay [9] has as its system Rattus norvegicus. The assay can be described thus: Effect on heart rate in anesthetized Wistar rat assessed as QRS complex time at 1 mg/kg, iv after 15 mins by electrocardiography. The assay is classed as functional.
The test system of assay [10] is Rattus norvegicus. The assay can be described thus: Effect on heart rate in anesthetized Wistar rat assessed as Q-T intervals time at 1 mg/kg, iv after 15 mins by electrocardiography. The assay is classed as functional.
In assay [11] the test system is Rattus norvegicus. As to the kind of experiment: Effect on heart rate in anesthetized Wistar rat assessed as heart beats per min at 1 mg/kg, iv after 15 mins by electrocardiography. The assay is classed as functional.
Assay [12] concerns Rattus norvegicus. The assay can be described thus: Effect on heart rate in anesthetized Wistar rat assessed as Q-T intervals time at 1 mg/kg, iv after 5 mins by electrocardiography. The assay is classed as functional.
For assay [13], the system named is Rattus norvegicus. The assay can be described thus: Effect on heart rate in anesthetized Wistar rat assessed as QRS complex time at 1 mg/kg, iv after 5 mins by electrocardiography. The assay is classed as functional.
Assay [14] has as its system Rattus norvegicus. The assay can be described thus: Effect on heart rate in anesthetized Wistar rat assessed as Q-T intervals time at 1 mg/kg, iv after 1 min by electrocardiography. The assay is classed as functional.

Molecules are shown by their SMILES.

As for `COc1ccccc1OCCNCC(O)COc1cccc2[nH]c3ccccc3c12` (stereo not drawn) [CARVEDILOL], the Activity with Rattus norvegicus [1] is given as 50 ms; in the assay on Rattus norvegicus [3], 340.3 bpm; with Rattus norvegicus [4] it was 345.2 bpm. In addition, in the assay on Rattus norvegicus [2], the ED50 turned out to be 0.25 mg/kg.
As to `COc1ccccc1OCCNCC(O)COc1cccc2[nH]ccc12` (racemic), the Activity with Rattus norvegicus [1] came out at 47.2 ms; in the assay with Rattus norvegicus [5], 46.2 ms; in the assay on Rattus norvegicus [6], 28.4 ms; with Rattus norvegicus [7], 48.1 ms; in the assay with Rattus norvegicus [9], 26.9 ms; with Rattus norvegicus [10], 72.8 ms. In addition, the Activity in the assay with Rattus norvegicus [3] is recorded as 294.5 bpm; with Rattus norvegicus [4], 298.7 bpm; in the assay on Rattus norvegicus [11], 287.3 bpm; in the assay with Rattus norvegicus [12], 69 ms; with Rattus norvegicus [13] it was 24.9 ms; in the assay on Rattus norvegicus [14], 69.2 ms. Further, in the assay on Rattus norvegicus [2], the ED50 came out at 0.34 mg/kg. In assay [8], this compound gave an inhibition constant Ki of 3 nM.

The term ED50 denotes the dose at which the effect has come halfway, by size or by number of responders. By Ki is commonly meant a dissociation constant, usually derived from enzyme kinetics or from competition with a known ligand. Lower therefore signals tighter binding.
